This passage reports IC50 results from ChEMBL document CHEMBL4000202, “Identification of a diverse synthetic abietane diterpenoid library for anticancer activity” (Bioorg Med Chem Lett, 2017).

Holding throughout (type): functional, cell-based
For one assay, the system named is A549. The experiment in a line: Cytotoxic activity against human A549 cells assessed as reduction in cell viability after 72 hrs by SRB assay. The conditions noted are these: A549, 72 h.
Another assay concerns SK-OV-3. The experiment in a line: Cytotoxic activity against human SKOV3 cells assessed as reduction in cell viability after 72 hrs by SRB assay. The conditions noted are these: SK-OV-3, 72 h. Background: The SRB assay estimates cell density from bound dye.
The next assay relates to PC-3. Kind of assay: Cytotoxic activity against human PC3 cells assessed as reduction in cell viability after 72 hrs by SRB assay. The note with it: PC-3, 72 h.

Molecules are shown by their SMILES. Some results are limits rather than exact numbers.

In the case of `COC(=O)[C@]1(C)CCC[C@]2(C)c3ccc(C(C)C)c(OC)c3[C@H](O)C[C@@H]12`, the IC50 in the assay with A549 was 76.6 µM; in the assay with SK-OV-3 it was 72.2 µM; in the assay on PC-3 it was 55.9 µM.
The corresponding values for `COc1ccc(COC[C@H]2[C@H](O)CC[C@]3(C)c4cccc(OC)c4CC[C@@H]23)cc1` are 5.39 µM, 6.19 µM and 3.37 µM.
Consider `COc1cccc2c1CC[C@H]1[C@H]3COC(=O)[C@@]3(O)C(=O)C[C@]21C`, for which the IC50 with A549, with SK-OV-3 and with PC-3 was over 100 µM in each case.
In the case of `C[C@]12CCC3=C(COC3=O)[C@@H]1CCc1ccccc12`, the IC50 with A549, in the assay on SK-OV-3 and with PC-3 was over 100 µM throughout.
With `COc1cccc2c1CC[C@H]1[C@H]3COC(=O)C3=CC[C@]21C`, the IC50 in the assay with A549 was 88.9 µM; in the assay with SK-OV-3, over 100 µM; with PC-3 it was over 100 µM.
As to `COC(=O)[C@]1(C)CCC[C@]2(C)c3ccc(C(C)C)c(O)c3CC[C@@H]12`, the IC50 was found to be 56 µM in the assay on A549, 42.9 µM in the assay with SK-OV-3 and 22.3 µM in the assay on PC-3.
As for `COc1c(C(C)C)ccc2c1CC[C@H]1[C@@H](O)CCC[C@]21CO[N+](=O)[O-]`, the IC50 with A549, with SK-OV-3 and in the assay with PC-3 was over 100 µM throughout.
`CCOCC[C@]12CCC3=C(COC3=O)[C@@H]1CCc1c2ccc(C(C)C)c1OC`: the IC50 in the assay with A549, with SK-OV-3 and with PC-3 was over 100 µM throughout.
`COC(=O)[C@]1(C)CCC[C@]2(C)c3ccc(C(C)C)c([N+](=O)[O-])c3CC[C@@H]12`: the IC50 with A549, with SK-OV-3 and in the assay with PC-3 was over 100 µM throughout.
`COc1c(C(C)C)ccc2c1CC[C@@]1(O)C3=C(C(=O)OC3)[C@@H](O)C[C@]21C`: the IC50 in the assay with A549 was over 100 µM; in the assay on SK-OV-3, 92.2 µM; in the assay with PC-3 it was over 100 µM.
As for `O=c1[nH]cc(F)c(=O)[nH]1` [FLUOROURACIL], the figures for the IC50 in the assay with A549, in the assay with SK-OV-3 and with PC-3 were 32.1 µM, 23.1 µM and 15.3 µM, respectively.
The corresponding values for `CC(C)(C)[Si](C)(C)O[C@@H]1CC[C@]2(C)c3ccccc3CC[C@H]2[C@H]1CO` are over 100 µM, over 100 µM and over 100 µM.
The corresponding values for `CC(C)c1ccc2c(c1O)CC[C@H]1C3=C(CC[C@]21C)C(=O)OC3` [TRIPTOPHENOLIDE] are over 100 µM, over 100 µM and over 100 µM.
The corresponding values for `CC(C)C1=CC2=CC[C@@H]3[C@](C)(CCC[C@@]3(C)C(=O)O)[C@H]2CC1` [ABIETIC ACID] are over 100 µM, 90.4 µM and over 100 µM.
For `COc1cccc2c1CC[C@H]1[C@@H](CO)[C@H](O[Si](C)(C)C(C)(C)C)CC[C@]21C`, the IC50 in the assay on A549, with SK-OV-3 and with PC-3 was over 100 µM in each case.
As to `C=C1[C@H](O[Si](C)(C)C(C)(C)C)CC[C@]2(C)c3ccccc3CC[C@@H]12`, the IC50 in the assay on A549 was 97.9 µM; in the assay on SK-OV-3, 91.8 µM; with PC-3, over 100 µM.
The corresponding values for `COC(=O)[C@]1(C)CCC[C@@]2(C)[C@H]1CC=C1C=C(C(C)C)CC[C@@H]12` [METHYL ABIETATE] are 63.1 µM, 81.3 µM and 79.3 µM.
The corresponding values for `COc1c(C(C)C)ccc2c1C=C[C@H]1C3=C(CC[C@]21C)C(=O)OC3` are over 100 µM, over 100 µM and over 100 µM.
The corresponding values for `COC(=O)[C@]1(C)CCC[C@@]2(C)[C@H]1CC=C1C(=O)[C@@](O)(C(C)C)CC[C@@H]12` are 85.1 µM, 99.2 µM and over 100 µM.
As for `CC(C)c1ccc2c(c1)CC[C@H]1[C@](C)(C(=O)O)CCC[C@]21C` [DEHYDROABIETIC ACID], the values for the IC50 in the assay with A549, in the assay on SK-OV-3 and in the assay on PC-3 were 74.3 µM, 66 µM and 51.3 µM, respectively.
With `COC(=O)[C@]1(C)CCC[C@@]2(C)[C@H]1CC=C1[C@@H]2CC[C@](O)(C(C)C)[C@H]1O`, the values for the IC50 in the assay with A549, in the assay with SK-OV-3 and in the assay with PC-3 were 92.4 µM, 92.9 µM and over 100 µM, respectively.
The corresponding values for `C=C1[C@@H]2CC(=O)c3c(ccc(C(C)C)c3OC)[C@@]2(C)CC[C@@]1(O)CO` are 25 µM, 59.6 µM and 27.2 µM.
The corresponding values for `COc1c(C(C)C)ccc2c1CC[C@H]1C3=C(CC[C@]21C)C(=O)OC3` are 98.8 µM, 49.8 µM and 50.4 µM.
The corresponding values for `C=CCc1cc(C(C)C)c(O)c2c1[C@@]1(C)CCC3=C(COC3=O)[C@@H]1CC2=O` are 97.5 µM, 87.1 µM and 95.1 µM.
`COc1c(C(C)C)ccc2c1CC[C@H]1C(=O)CCC[C@]21CO[N+](=O)[O-]`: the IC50 in the assay with A549, with SK-OV-3 and in the assay on PC-3 was over 100 µM in each case.
Turning to `C=C1[C@H](O)CC[C@]2(C)c3ccc(C(C)C)c(OC)c3CC[C@@H]12`, the IC50 with A549 is 99.6 µM; with SK-OV-3, over 100 µM; in the assay on PC-3, over 100 µM.
Regarding `COC(=O)[C@]1(C)CCC[C@]2(C)c3ccc(C(C)C)c(OC)c3[C@@H](O)C[C@@H]12`, the IC50 was 85.7 µM in the assay with A549, 51.9 µM in the assay on SK-OV-3 and 64.2 µM in the assay with PC-3.
The corresponding values for `CC(C)c1ccc2c(c1O)C(=O)C[C@H]1C3=C(CC[C@]21CO)C(=O)OC3` are over 100 µM, 95.4 µM and 92.2 µM.
`C=CCOc1cccc2c1C(=O)C[C@H]1C3=C(CC[C@]21C)C(=O)OC3`: the IC50 was 89.4 µM in the assay with A549, over 100 µM with SK-OV-3 and over 100 µM in the assay on PC-3.
`COC(=O)[C@]1(C)CCC[C@]2(C)c3ccc(C(C)C)cc3CC[C@@H]12` [METHYL DEHYDROABIETATE]: the IC50 in the assay with A549 worked out at 41.2 µM; in the assay with SK-OV-3, 51.3 µM; in the assay with PC-3 it was 37.7 µM.
The corresponding values for `CC(C)[C@]12O[C@H]1[C@@H]1O[C@]13[C@]1(O[C@H]1C[C@H]1C4=C(CC[C@@]13C)C(=O)OC4)[C@@H]2O` [TRIPTOLIDE] are 0.0175 µM, 0.0072 µM and 0.0183 µM.
The corresponding values for `COc1cccc2c1CC[C@H]1C3=C(CC[C@]21C)C(=O)OC3` are over 100 µM, over 100 µM and over 100 µM.
The corresponding values for `CC(C)c1ccc2c(c1O)C(=O)C[C@H]1C3=C(CC[C@]21C)C(=O)OC3` are 77.3 µM, 42.5 µM and 58 µM.
In the case of `C=C1C(=O)CC[C@]2(C)c3ccc(C(C)C)c(OC)c3CC[C@@H]12`, the IC50 in the assay on A549 was 9.31 µM; in the assay on SK-OV-3 it was 7.49 µM; in the assay on PC-3, 7.28 µM.
The corresponding values for `C=C1C(=C(SC)SC)CC[C@]2(COCOCC)c3ccc(C(C)C)c(OC)c3CC[C@@H]12` are 99.8 µM, 26 µM and 19.4 µM.
The corresponding values for `COc1c(C(C)C)ccc2c1CC[C@@]1(O)C3=C(CC[C@]21C)C(=O)OC3` are over 100 µM, over 100 µM and over 100 µM.
Turning to `COC(=O)C1=C[C@@H]2CCc3c(ccc(C(C)C)c3OC)[C@@]2(C)CC1`, the IC50 with A549, with SK-OV-3 and in the assay with PC-3 was over 100 µM throughout.
Consider `C=CCOc1c(C(C)C)ccc2c1C(=O)C[C@H]1C3=C(CC[C@]21C)C(=O)OC3`, for which the results for the IC50 in the assay on A549, in the assay with SK-OV-3 and with PC-3 were over 100 µM, 82.4 µM and 98.3 µM, respectively.
The corresponding values for `COc1c(C(C)C)ccc2c1CC[C@H]1[C@H]3COC(=O)[C@H]3CC[C@]21C` are over 100 µM, over 100 µM and over 100 µM.
Take `CC(C)(C)C(=O)OC[C@H]1[C@H](O)CC[C@]2(C)c3ccccc3CC[C@@H]12`: the figures for the IC50 in the assay with A549, in the assay with SK-OV-3 and in the assay on PC-3 were 64.5 µM, 43.2 µM and 49.2 µM, respectively.
On to `COc1c(C(C)C)ccc2c1CC[C@H]1[C@@H]3COC(=O)[C@@H]3CC[C@]21C`, for which the half-inhibitory concentration (IC50) in the assay with A549, in the assay with SK-OV-3 and in the assay with PC-3 was over 100 µM in each case.
With `C=C1CCC[C@]2(C)c3ccc(C(C)C)c(OC)c3CC[C@@H]12`, the figures for the IC50 in the assay with A549, in the assay with SK-OV-3 and with PC-3 were 99.1 µM, over 100 µM and over 100 µM, respectively.
In the case of `COC(=O)[C@]1(C)CCC[C@]2(C)c3ccc(C(C)C)c(OC)c3C(=O)C[C@@H]12`, the concentration for half-maximal inhibition (IC50) with A549 is over 100 µM; in the assay on SK-OV-3 it was over 100 µM; with PC-3, 99.4 µM.
Consider `COC(=O)[C@]1(C)CCC[C@]2(C)c3ccc(C(C)C)c(N)c3CC[C@@H]12`, for which the IC50 is 35.7 µM in the assay with A549, 37.8 µM in the assay on SK-OV-3 and 21.1 µM in the assay with PC-3.
The corresponding values for `C=C1C(=C(SC)SC)CC[C@]2(CO)c3ccc(C(C)C)c(OC)c3CC[C@@H]12` are 53.8 µM, 32.9 µM and 50.1 µM.
For the compound `C[C@]12CC=C3C(=O)OC[C@@H]3[C@@H]1CCc1ccccc12`, the IC50 in the assay on A549, in the assay on SK-OV-3 and with PC-3 was over 100 µM in each case.
On to `C=C1C(CO)=CC[C@]2(C)c3ccc(C(C)C)c(OC)c3C(=O)C[C@@H]12`, for which the IC50 with A549, with SK-OV-3 and in the assay with PC-3 was over 100 µM throughout.
On to `C=C1C(=O)CC[C@]2(C)c3cccc(OC)c3CC[C@@H]12`, for which the half-inhibitory concentration (IC50) in the assay with A549 is 5.47 µM; in the assay with SK-OV-3 it was 3.31 µM; in the assay on PC-3, 5.01 µM.
The corresponding values for `COc1c(C(C)C)ccc2c1CC[C@H]1[C@@H](CO)[C@H](O)CC[C@]21C` are over 100 µM, over 100 µM and over 100 µM.

What is called IC50 is the concentration needed to halve the response being measured.
